Reference: patent US20060287251A1, “Combination therapy for glycaemic control” (priority 2003, published 2006)
pKi: −log10 of the molar value.

How the values were obtained:
Plasma stability = format: in vitro ADME, human; conditions: 37 °C; for stability in human plasma: human plasma in vitro; for half-life of the inhibitory potency: human plasma, 5*10^−5, 2.5*10^−5, 1.25*10^−5 M
Procedure: In order to investigate the stability of glutaminyl pyrrolidine or glutaminyl thiazolidine in human plasma, the activity of DPIV in plasma was determined at a defined time. The average DPIV activity in human plasma was determined as 43.69 U/mL. In the working solution, the plasma was diluted in 0.9% NaCl to fix the DPIV activity level at 25 U/mL. Plasma and glutaminyl pyrrolidine or glutaminyl thiazolidine in different concentrations (5*10^−5, 2.5*10^−5, 1.25*10^−5 M in plasma) were incubated at 37° C. At defined time points samples were taken using a pipette roboter (Gilson 215, Liquid handler, Gilson) and transferred in a microtiter plate containing 5*10^−5 M glycylprolylaminomethylcoumarine in 0.9% NaCl+015% Brij per well. After 6 min the reaction was stopped by addition of isoleucylthiazolidine (5*10^−5 M in 0.9% NaCl solution). Fluorescence measurement was performed against 0.9% NaCl in plasma (reference standard) using a plate reader (HTS7000 plus, Applied Biosystems, Weiterstadt, Germany). The half-life of the inhibitory potency of glutaminyl pyrrolidine or glutaminyl thiazolidine was calculated by plotting the enzyme activity versus reaction time.

[1] = molecular target: T1, Dipeptidyl Peptidase I (cathepsin C) (Rattus norvegicus, UniProt P80067); test: Cross reacting enzymes: dipeptidyl peptidase I; format: biochemical; conditions: concentration range 1*10^−5 M-1*10^−7 M
T1 construct: purchased Qiagen GmbH, Hilden, Germany
T1 sequence (P80067 25-462): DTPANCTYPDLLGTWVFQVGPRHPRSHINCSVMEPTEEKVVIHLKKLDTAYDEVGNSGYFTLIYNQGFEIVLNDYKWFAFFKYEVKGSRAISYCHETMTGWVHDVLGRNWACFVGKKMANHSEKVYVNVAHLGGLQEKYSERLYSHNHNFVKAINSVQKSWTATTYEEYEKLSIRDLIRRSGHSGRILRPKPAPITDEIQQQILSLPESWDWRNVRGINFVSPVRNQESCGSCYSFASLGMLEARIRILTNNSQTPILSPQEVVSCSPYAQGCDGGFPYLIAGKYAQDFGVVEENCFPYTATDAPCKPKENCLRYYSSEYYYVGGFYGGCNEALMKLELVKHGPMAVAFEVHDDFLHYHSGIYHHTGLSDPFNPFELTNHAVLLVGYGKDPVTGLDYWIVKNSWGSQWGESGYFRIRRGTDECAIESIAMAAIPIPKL
Procedure: Glutaminyl pyrrolidine or glutaminyl thiazolidine were tested for their cross reacting potency against dipeptidyl peptidase I, prolyl oligopeptidase and prolidase.
DP I or cathepsin C is a lysosomal cysteine protease which cleaves dipeptides from the N-terminus of their substrates (Gutman, H. R. & Fruton, J. S., 1948, J Biol. Chem., 174, 851-858). It is classified as a cysteine protease. The enzyme used was purchased from Qiagen (Qiagen GmbH, Hilden, Germany). In order to get a fully active enzyme, the enzyme was diluted 1000 fold in MES buffer pH5.6 (40 mM MES, 4 mM DTT, 4 mM KCl, 2 mM EDTA, 0.015% Brij) and pre-incubated for 30 min at 30° C. 50 μL glutaminyl pyrrolidine or glutaminyl thiazolidine in a concentration range of 1*10^−5 M-1*10^−7 M were admixed with 110 μL buffer-enzyme-mixture. The assay mixture was pre-incubated at 30° C. for 15 min After pre-incubation, 100 μL histidylseryl-para-nitroanilide (2*10^−5 M) were added and measurement of yellow color development due to para-nitroaniline release was performed at 30° C. and […] for 10 min, using a plate reader (HTS7000 plus, Applied Biosystems, Weiterstadt, Germany). The IC50-values were calculated using Graphit 4.0.15 (Erithacus Software, Ltd., UK). No inhibition of the DP I enzyme activity by glutaminyl pyrrolidine or glutaminyl thiazolidine was found.

porcine DP II = molecular target: T2, porcine DP II (Sus scrofa, UniProt A0A5G2QK18); test: Inhibition of DP IV-like enzymes: dipeptidyl peptidase II; format: biochemical; conditions: substrate lysylalanylaminomethylcoumarine, pH 7.6, 30 °C
T2 construct: The enzyme used was purified from porcine kidney; from tissue; host or cells: porcine kidney
Procedure: DP II (3.4.14.2) releases N-terminal dipeptides from oligopeptides if the N-terminus is not protonated (McDonald, J. K., Ellis, S. & Reilly, T. J., 1966, J Biol. Chem., 241, 1494-1501). Pro and Ala in P1-position are preferred residues. The enzyme activity is described as DPIV-like activity, but DP II has an acidic pH-optimum. The enzyme used was purified from porcine kidney. 100 μL glutaminyl pyrrolidine or glutaminyl thiazolidine in an concentration range of 1*10^−4M-5*10^−8M were admixed with 100 μL buffer solution (40 mM HEPES, pH 7.6, 0.015% Brij, 1 mM DTT), 50 μL lysylalanylaminomethylcoumarine solution (5 mM) and 20 μl porcine DP II (250 fold diluted in buffer solution). Fluorescence measurement was performed at 30° C. and λexiatation=380 nm, λemission=465 nm for 25 min using a plate reader (HTS7000 plus, Applied Biosystems, Weiterstadt, Germany).

[2] = molecular target: T3, dipeptidyl peptidase IV from porcine kidney (Sus scrofa, UniProt P22411); test: Ki-determination, DP IV from porcine kidney; format: biochemical; conditions: substrate glycylprolyl-4-nitroaniline, 30 °C, pH 7.6, competitive inhibition
T3 construct: dipeptidyl peptidase IV from porcine kidney with a specific activity against glycylprolyl-4-nitroaniline of 37.5 U/mg; from tissue; host or cells: porcine kidney
Procedure: For Kidetermination of glutaminyl pyrrolidine and glutaminyl thiazolidine, dipeptidyl peptidase IV from porcine kidney with a specific activity against glycylprolyl-4-nitroaniline of 37.5 U/mg and an enzyme concentration of 1.41 mg/mL in the stock solution was used.
100 μL glutaminyl pyrrolidine or glutaminyl thiazolidine in a concentration range of 1*10^−5 -1*10^−7 M (glutaminyl pyrrolidine) and 1*10^−6 M-1*10^−8 M (glutaminyl thiazolidine) respectively were admixed with 50 μL glycylprolyl-4-nitroaniline in different concentrations (0.4 mM, 0.2 mM, 0.1 mM, 0,05 mM) and 100 μl HEPES (40 mM, pH7.6; ion strength=0.125). The assay mixture was pre-incubated at 30 ° C. for 30 min. After pre-incubation, 20 μL DPIV (1:600 diluted) were added and measurement of yellow color development due to 4-nitroaniline release was performed at 30° C. and λ=405 nm for 10 min using a plate reader (HTS7000 plus, Applied Biosystems, Weiterstadt, Germany). The Ki-values were calculated using Graphit 4.0.15 (Erithacus Software, Ltd, UK) based on a competitive inhibition of DPIV by glutaminyl pyrrolidine or glutaminyl thiazolidine.

T2 sequence (A0A5G2QK18 28-502): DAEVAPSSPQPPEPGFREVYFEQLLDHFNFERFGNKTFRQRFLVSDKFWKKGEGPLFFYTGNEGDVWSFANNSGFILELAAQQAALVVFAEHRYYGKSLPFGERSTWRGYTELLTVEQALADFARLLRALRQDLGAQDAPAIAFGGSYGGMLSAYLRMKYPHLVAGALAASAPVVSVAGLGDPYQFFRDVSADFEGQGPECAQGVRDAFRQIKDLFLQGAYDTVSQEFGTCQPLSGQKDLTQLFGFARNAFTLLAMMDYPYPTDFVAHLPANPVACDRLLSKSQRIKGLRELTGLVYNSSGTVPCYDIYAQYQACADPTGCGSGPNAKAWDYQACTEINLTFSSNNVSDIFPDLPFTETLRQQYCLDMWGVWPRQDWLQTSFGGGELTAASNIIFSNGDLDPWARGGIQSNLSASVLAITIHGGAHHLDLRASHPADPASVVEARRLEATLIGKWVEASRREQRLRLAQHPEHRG
T3 sequence (P22411 whole entry): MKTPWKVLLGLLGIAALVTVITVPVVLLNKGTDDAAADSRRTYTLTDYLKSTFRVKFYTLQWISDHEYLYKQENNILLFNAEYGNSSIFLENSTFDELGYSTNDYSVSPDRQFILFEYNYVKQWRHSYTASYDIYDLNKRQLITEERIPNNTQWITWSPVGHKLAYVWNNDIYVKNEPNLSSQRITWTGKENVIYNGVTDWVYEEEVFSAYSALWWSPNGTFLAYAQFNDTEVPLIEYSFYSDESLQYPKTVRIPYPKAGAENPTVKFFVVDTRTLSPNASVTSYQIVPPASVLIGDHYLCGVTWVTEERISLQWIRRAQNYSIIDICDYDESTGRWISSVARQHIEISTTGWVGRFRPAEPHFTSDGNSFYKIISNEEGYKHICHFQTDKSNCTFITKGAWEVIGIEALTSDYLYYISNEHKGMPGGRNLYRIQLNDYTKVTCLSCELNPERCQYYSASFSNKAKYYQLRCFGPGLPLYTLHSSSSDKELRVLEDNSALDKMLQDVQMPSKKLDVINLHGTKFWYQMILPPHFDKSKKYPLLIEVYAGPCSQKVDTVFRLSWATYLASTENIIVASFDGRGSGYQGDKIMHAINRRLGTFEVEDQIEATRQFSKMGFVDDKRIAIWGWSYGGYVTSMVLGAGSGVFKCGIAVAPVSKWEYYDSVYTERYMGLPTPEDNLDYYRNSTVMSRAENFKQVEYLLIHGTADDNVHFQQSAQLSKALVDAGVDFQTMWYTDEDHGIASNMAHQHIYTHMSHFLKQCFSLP

SMILES | stability in human plasma (Plasma stability) | half-life of the inhibitory potency (Plasma stability) | inhibition of the DP I enzyme activity [1] | pKi (porcine DP II) | pKi [2]
NC(=O)CC[C@H](N)C(=O)N1CCCC1 [glutaminyl pyrrolidine] | stable in human plasma over 22 hours | no half-time could be determined | No inhibition | 4.07 | 5.89
NC(=O)CC[C@H](N)C(=O)N1CCSC1 [glutaminyl thiazolidine] | stable in human plasma over 22 hours | no half-time could be determined | No inhibition | 4.97 | 6.51
